{"source": "patent US12171807B2", "about": "“Use of bremelanotide in patients with controlled hypertension” (Cosette Pharmaceuticals, Inc., priority 2020, dated 2024)", "key": {"[1]": {"assay": "Repeat dosing ambulatory blood pressure monitoring study, bremelanotide 1.75 mg SC daily for 8 days then randomized withdrawal (days 9 to 16)", "type": "in vivo, human", "settings": "for mean change (95% CI) in daytime systolic BP: day 8; for Difference from Baseline, daytime diastolic BP at Day 8 / Difference from Baseline, daytime systolic BP at Day 8: BP in mmHg", "method": "The study focusing on the impact of repeat dosing on blood pressure included 127 women treated with bremelanotide 1.75 mg administered subcutaneously (SC) daily for 8 consecutive days, followed by a randomized withdrawal period of 8 additional consecutive days (days 9 to 16) in which study participants were randomized to either remain on bremelanotide 1.75 mg SC daily or placebo SC daily. Ambulatory blood pressure monitoring was performed on baseline day −1 (single blind placebo), day 8 and on day 16. After 8 days of dosing of bremelanotide 1.75 mg SC, the mean changes from baseline in the 24 hour systolic and diastolic BPs (FIG. 1) were below 2 mmHg. Importantly, the upper bound of the 95% confidence interval for the mean changes in daytime systolic BP (a pre-specified outcome) was below 4 mmHg. These increases in BP were accompanied by small to no reductions in the heart rate of 1 beat/minute or less.\nThere were 122 (96%) study participants who completed the randomized withdrawal portion of the study. […] In those randomized to placebo, returns toward baseline BP values were observed (generally a 2 mmHg decline from day 8).\nThe patient population was comprised of normotensive premenopausal women and included 2 women with a medical history of hypertension on antihypertensive therapy. One subject was being treated for hypertension with Lisinopril. The other subject was being treated for hypertension with chlorthalidone. Both subjects received all 16 injections; 8 doses in the Open-Label Period and 8 doses in the Randomized Withdrawal Period (one subject was randomized to each treatment group). […] The mean changes from Baseline (Day −1) at Day 8 during daytime in these two subjects are shown in the below table. Changes in daytime HR at Day 8 were −1.7 bpm for the subject and −1.4 bpm for the subject.\nIn order to better understand the potential effects of the drug in patients with higher BP values at baseline, an exploratory analysis was performed from the trial evaluating those women whose baseline BP was in the 90th percentile (pre-dose systolic BP >124 mmHg) to determine if the pressor response of bremelanotide differed from those study participants whose baseline BP was below the 90th percentile (pre-dose systolic BP <124 mmHg). At day 8, mean changes (95% CI) from the daytime systolic BP in those study participants in the 90th percentile or greater (n=17) at baseline was −0.16 (−2.06, 1.75) mmHg versus 2.03 (1.70, 2.36) mmHg in those whose baseline systolic BP was below the 90th percentile."}, "[2]": {"assay": "Repeat dosing ambulatory blood pressure monitoring study, bremelanotide 1.75 mg SC daily for 8 days then randomized withdrawal (days 9 to 16)", "type": "in vivo, human", "settings": "after 16 days of dosing of bremelanotide 1.75 mg SC"}, "[3]": {"assay": "Drug-drug interaction study with antihypertensive agents, single dose bremelanotide 1.75 mg SC vs placebo, ambulatory BP monitoring", "type": "in vivo, human", "method": "An additional study evaluated the effects of single doses of bremelanotide 1.75 mg SC and placebo SC in normotensive, healthy women pre-treated with 5 different classes of antihypertensive drugs in a double-blind cross-over design using ambulatory BP monitoring. The washout period between randomized, blinded treatments was 48 hours. This study included both premenopausal and postmenopausal women. There were 15 healthy […] subjects in each panel of the antihypertensive medications with the exception of the beta-blocker metoprolol (n=17). Blood pressures at baseline in the various panels were low normal (24 hour systolic BPs ranging from 109 to 114 mmHg and 24 hour diastolic BPs ranging from 67 to 72 mmHg (FIG. 2). The placebo-corrected changes from baseline in the 24-hour systolic BPs on bremelanotide 1.75 mg SC ranged from 1.7 mmHg on amlodipine to 3.8 mmHg on hydrochlorothiazide; changes in the 24 hour diastolic BPs ranged from 1.8 mmHg on metoprolol to 2.8 mmHg on lisinopril. In 4 of the 5 classes of antihypertensive medications, nighttime BP changes were substantially lower than daytime BP changes. In study participants pre-treated with hydrochlorothiazide 12.5 mg daily, nighttime BPs increased by 5.5/4.5 mmHg. In review of individual subjects in the HCTZ panel, it was noted that 4 study participants had large reductions in nighttime SBP (10-15 mmHg) on placebo while on bremelanotide 4 study participants had large increases in nighttime SBP (10-15 mmHg).\n1. […] There was an elevation in nighttime BP in patients pre-treated with hydrochlorothiazide 12.5 mg, which has no apparent pharmacologic basis and is like the result of random variability in both the bremelanotide and placebo sub-groups. As noted, there was no similar finding in the 4 other antihypertensive panels."}, "[4]": {"assay": "Blood pressure by time post-dose, Bremelanotide 2 mg SC vs placebo", "type": "in vivo", "settings": "2 mg SC (n = 30)"}, "[5]": {"assay": "Pressor effect in obese women receiving supratherapeutic doses (6.5 mg daily) for 15 days", "type": "in vivo, human", "settings": "15 days at 6.5 mg daily"}, "[6]": {"settings": "repeat doses of BMT; review of IND 64119; cited from earlier work"}, "[7]": {"settings": "2 women with history of hypertension on antihypertensive therapy"}, "[8]": {"settings": "61 women, 1.75 mg SC for 16 consecutive days"}, "[9]": {"settings": "following 8 consecutive days of dosing"}, "[10]": {"settings": "subject treated with Lisinopril"}, "[11]": {"settings": "subject treated with chlorthalidone"}, "[12]": {"settings": "subject with hypertension treated with Lisinopril, baseline (Day −1) 105/70 mmHg"}, "[13]": {"settings": "subject with hypertension treated with chlorthalidone, baseline (Day −1) 121/81 mmHg"}, "[14]": {"settings": "single dose 1.75 mg SC, pre-treated with hydrochlorothiazide 12.5 mg daily"}}}
{"smiles": "CCCC[C@H](NC(C)=O)C(=O)N[C@H]1CC(=O)NCCCC[C@@H](C(=O)O)NC(=O)[C@H](Cc2c[nH]c3ccccc23)NC(=O)[C@H](CCCN=C(N)N)NC(=O)[C@@H](Cc2ccccc2)NC(=O)[C@H](Cc2cnc[nH]2)NC1=O", "note": "[bremelanotide, Ac-Nle-cyclo(-Asp-His-D-Phe-Arg-Trp-Lys)-OH]", "values": [{"measurement": "outlier analysis: systolic BP elevation of >150 mmHg or diastolic BP elevation >95 mmHg lasting for 120 minutes", "setting": "[1]; 1.75 mg SC daily", "value": "1 (0.8%) study participants (%)"}, {"measurement": "outlier analysis: systolic BP elevation of >160 mmHg or diastolic BP elevation of >100 mmHg lasting more than 90 minutes", "setting": "[1]; 1.75 mg SC daily", "value": "2 (1.6%) study participants (%)"}, {"measurement": "abnormalities on ECG", "setting": "[1]; [7]", "value": "neither subject had clinically significant abnormalities on ECG"}, {"measurement": "cardiovascular TEAE", "setting": "[1]; [7]", "value": "No cardiovascular TEAE were reported"}, {"measurement": "intensity of TEAE", "setting": "[1]; [7]", "value": "all were mild in intensity"}, {"measurement": "increases in 24 hour BP from placebo baseline (Day −1)", "setting": "[1]; [8]", "value": "< 1", "unit": "mmHg"}, {"measurement": "increases in average daytime BPs from placebo baseline (Day −1)", "setting": "[1]; [8]", "value": "< 1.5", "unit": "mmHg"}, {"measurement": "cumulative effect on daytime BP or heart rate compared to baseline or day 8", "setting": "[1]; 16 days of consecutive administration", "value": "no cumulative increases in daytime BP or reductions in heart rate"}, {"measurement": "reductions in the heart rate", "setting": "[1]; after 8 days of 1.75 mg SC daily", "value": "≤ 1", "unit": "beat/minute"}, {"measurement": "mean change from baseline in 24 hour diastolic BP", "setting": "[1]; after 8 days of 1.75 mg SC daily, 127 women", "value": "below 2 mmHg"}, {"measurement": "mean change (95% CI) in daytime systolic BP", "setting": "[1]; baseline BP in the 90th percentile or greater (pre-dose systolic BP >124 mmHg), n=17", "value": "−0.16 (−2.06, 1.75) mmHg"}, {"measurement": "mean change (95% CI) in daytime systolic BP", "setting": "[1]; baseline systolic BP below the 90th percentile", "value": "2.03 (1.70, 2.36) mmHg"}, {"measurement": "time of peak effects on BP post-dose", "setting": "[1]; [9]", "value": "3 to 5", "unit": "h"}, {"measurement": "time post-dose by which BP effect attenuated", "setting": "[1]; [9]", "value": "≤ 8", "unit": "h"}, {"measurement": "nighttime BP", "setting": "[1]; following 8 days of consecutive therapy", "value": "no increases in nighttime BP"}, {"measurement": "complications or symptoms associated with transient stage 2 hypertension levels", "setting": "[1]; outlier subjects", "value": "In none of these subjects were there complications or symptoms"}, {"measurement": "Change in daytime HR at Day 8", "setting": "[1]; [10]", "value": "−1.7", "unit": "bpm"}, {"measurement": "Difference from Baseline, daytime diastolic BP at Day 8", "setting": "[1]; [10]", "value": "+4 diastolic"}, {"measurement": "Difference from Baseline, daytime systolic BP at Day 8", "setting": "[1]; [10]", "value": "+3 systolic;"}, {"measurement": "Change in daytime HR at Day 8", "setting": "[1]; [11]", "value": "−1.4", "unit": "bpm"}, {"measurement": "Difference from Baseline, daytime diastolic BP at Day 8", "setting": "[1]; [11]", "value": "−4", "unit": "diastolic"}, {"measurement": "Difference from Baseline, daytime systolic BP at Day 8", "setting": "[1]; [11]", "value": "−9 systolic;"}, {"measurement": "Day 8 Daytime BP, diastolic", "setting": "[1]; [12]", "value": 74, "unit": "mmHg"}, {"measurement": "Day 8 Daytime BP, systolic", "setting": "[1]; [12]", "value": 108, "unit": "mmHg"}, {"measurement": "Day 8 Daytime BP, diastolic", "setting": "[1]; [13]", "value": 77, "unit": "mmHg"}, {"measurement": "Day 8 Daytime BP, systolic", "setting": "[1]; [13]", "value": 112, "unit": "mmHg"}, {"measurement": "daytime systolic BP change by baseline BP percentile, trend", "setting": "[2]", "value": "Trends were similar"}, {"measurement": "large increases in nighttime SBP in individual subjects", "setting": "[3]; 4 study participants of the HCTZ panel on bremelanotide", "value": "10-15 mmHg"}, {"measurement": "induction of hypertension by BP increases", "setting": "[3]; single dose 1.75 mg SC, healthy women on antihypertensive therapy at steady-state", "value": "did not induce hypertension"}, {"measurement": "nighttime BP increase, diastolic", "setting": "[3]; [14]", "value": 4.5, "unit": "mmHg"}, {"measurement": "nighttime BP increase, systolic", "setting": "[3]; [14]", "value": 5.5, "unit": "mmHg"}, {"measurement": "placebo-corrected change from baseline in 24-hour systolic BP", "setting": "[3]; single dose 1.75 mg SC, women pre-treated with amlodipine", "value": 1.7, "unit": "mmHg"}, {"measurement": "placebo-corrected change from baseline in 24-hour systolic BP", "setting": "[3]; single dose 1.75 mg SC, women pre-treated with hydrochlorothiazide", "value": 3.8, "unit": "mmHg"}, {"measurement": "placebo-corrected change from baseline in 24 hour diastolic BP", "setting": "[3]; single dose 1.75 mg SC, women pre-treated with lisinopril", "value": 2.8, "unit": "mmHg"}, {"measurement": "placebo-corrected change from baseline in 24 hour diastolic BP", "setting": "[3]; single dose 1.75 mg SC, women pre-treated with metoprolol", "value": 1.8, "unit": "mmHg"}, {"measurement": "Diastolic Blood Pressure", "setting": "[4]; Hour 1 post-dose", "value": "1.00 (−3.13, 5.13)"}, {"measurement": "Systolic Blood Pressure", "setting": "[4]; Hour 1 post-dose", "value": "2.36 (−2.15, 6.87)"}, {"measurement": "Diastolic Blood Pressure", "setting": "[4]; Hour 2 post-dose", "value": "1.03 (−2.96, 5.02)"}, {"measurement": "Systolic Blood Pressure", "setting": "[4]; Hour 2 post-dose", "value": "0.01 (−4.18, 4.20)"}, {"measurement": "Diastolic Blood Pressure", "setting": "[4]; Hour 3 post-dose", "value": "1.26 (−2.74, 5.26)"}, {"measurement": "Systolic Blood Pressure", "setting": "[4]; Hour 3 post-dose", "value": "0.84 (−3.55, 5.23)"}, {"measurement": "Diastolic Blood Pressure", "setting": "[4]; Hour 4 post-dose", "value": "−1.38 (−6.00, 3.24)"}, {"measurement": "Systolic Blood Pressure", "setting": "[4]; Hour 4 post-dose", "value": "0.38 (−3.13, 3.90)"}, {"measurement": "cumulative effect on blood pressure or heart rate", "setting": "[5]", "value": "no evidence for a cumulative effect on blood pressure or heart rate"}, {"measurement": "duration of blood pressure effect", "setting": "[6]", "value": "at least four hours"}, {"measurement": "increases in systolic and diastolic blood pressures", "setting": "[6]", "value": "approximately 4 mmHg"}]}
